Patent US7749725B2, “Drug screening and diagnosis based on paracrine tubular renin-angiotensin system” (University of Utah Research Foundation, priority 1998, dated 2010)
“Also recorded” adds a separate entry of the source.

Assays:
[1] = tested on: renin expression in CNT cells; experiment: Renin expression in CNT cells by quantitative histology (renin immunostaining) after sodium diet and diuretics; assay type: in vivo, C57BL6 mice
Experimental: (§1) 3. Animal experiments and measurements. C57BL6 mice were used following IRB approved protocols. Twenty-four hours prior to dietary sodium manipulations, all animals were fasted with free access to water, supplemented with 2% glucose and 0.1% KCl. Either one mg/kg amiloride and 2 mg/kg furosemide (52) or control carrier were applied by subcutaneous injection. Low sodium (0.3% sodium) and high sodium (6%) diets were purchased from Purina Mills (Purina Mills Inc., St. Louis, Mo.). Blood was collected by cardiac puncture. Spot urine was collected by bladder puncture. Hemidissected kidneys were formalin-fixed or snap-frozen in liquid nitrogen. For urine collection, mice were placed in metabolic cages (Nalgene, Nalge Nunc International, Rochester, N.Y.). Urine specimens were collected at 12 h intervals in tubes containing AEBSF and 8-hydroxyquinoline (NEN-DuPont, Boston, Mass.). Weight and urine volumes were recorded daily. Urinary Ang and A-I measurements were corrected for creatinine or expressed as total urinary Ang. RNA isolation and RT-PCR were performed following standard protocols (QIAGEN, Valencia, Calif.). […]
5. […] The biotinylated secondary antibody was detected using streptavidin conjugated with horseradish peroxidase or alkaline phosphatase and visualized with either 3-amino-9-ethyl-carbazole (AEC; Sigma) or NBT/BCIP, respectively. […]
6. Quantitative histology. Renin expression in renal tubular cells as a function of sodium diet, or diuretics, was assayed by quantitating the frequency of renin immunostaining in segments of the distal nephron using the peroxidase reporter enzyme and AEC chromogen. Two independent blinded investigators scored sagittal kidney for renin using a subjective 0-4 scale: 0 equaled no tubular renin staining; 1 equaled at least one positive cell per tubule segment; 2 equaled between 25-50% of cells per of tubule segment; 3 equaled more than 50% of cells per tubule segment stained for renin; 4 equaled >75%. […] Results were analyzed by comparing the mean±S.E.M. between groups using unpaired t-tests. p<0.05 was considered significant. […]

renin expression in JGA = experiment: JGA renin expression by semiquantitative RT-PCR of total kidney RNA; assay type: in vivo, C57BL6 mice; conditions: overnight
Experimental: as §1, with “Ang.” for “Ang. RNA isolation and RT-PCR were performed following standard protocols (QIAGEN, Valencia, Calif.).”
On the basis of immunostaining and expression studies, we conclude that, in addition to its major site of expression in JGA, renin is also expressed in connecting tubule. […] Renin expression in CNT cells was assessed by quantitative histology (frequency of CNT cells staining for renin). […] Manipulation of dietary sodium was monitored by measuring total sodium excretion. […]

| SMILES | renin expression in distal nephron ([1]; blocking the sodium channel of principal cells (summary statement)) | CNT immunoreactive renin ([1]; high sodium diet plus amiloride (one mg/kg, subcutaneous), overnight, vs high sodium alone) | JGA renin (renin expression in JGA; high sodium diet plus amiloride (one mg/kg, subcutaneous), p<0.05) | renin expression in CNT ([1]; sodium restriction plus furosemide (2 mg/kg, subcutaneous), overnight, vs sodium restriction alone) | JGA renin (renin expression in JGA; sodium restriction plus furosemide (2 mg/kg, subcutaneous), vs sodium restriction alone) |
| --- | --- | --- | --- | --- | --- |
| N=C(N)NC(=O)c1nc(Cl)c(N)nc1N [amiloride] | up-regulation | increased; also recorded: marked increase | significantly decreased |  |  |
| NS(=O)(=O)c1cc(C(=O)O)c(NCc2ccco2)cc1Cl [furosemide] |  |  |  | decreased | without additional effects |
